Counter-ions that a name gives are not always drawn.
Assays:
D4 receptors = D4 receptors (Chlorocebus aethiops, UniProt A0A0D9REG7); assay: D4 receptor binding assay (3H-YM 09151-2); design: species or system African Green monkey; settings: Table 1; COS cell pellets with recombinant receptor, 0.5 nM 3H-YM 09151-2; read-out: D4 K1
Protocol: (§1) Assay for D2 and D4 Receptor Binding Activity
(§2) Pellets of COS cells containing recombinantly produced D2 or D4 receptors from African Green monkey were used for the assays. The sample is homogenized in 100 volumes (w/vol) of 0.05 M Tris HCl buffer at 4° C. and pH 7.4. The sample is then centrifuged at 30,000×g and resuspended and rehomogenized. The sample is then centrifuged as described and the final tissue sample is frozen until use. The tissue is resuspended 1:20 (wt/vol) in 0.05 M Tris HCl buffer containing 100 mM NaCl.

M1 Muscarinic subtype = molecular target: T1, M1 Muscarinic subtype (Homo sapiens, UniProt P11229); assay: M1 Muscarinic subtype assay per U.S. Pat. No. 5,093,333; assay type: binding; settings: Table 1
T1 sequence (P11229 1-460): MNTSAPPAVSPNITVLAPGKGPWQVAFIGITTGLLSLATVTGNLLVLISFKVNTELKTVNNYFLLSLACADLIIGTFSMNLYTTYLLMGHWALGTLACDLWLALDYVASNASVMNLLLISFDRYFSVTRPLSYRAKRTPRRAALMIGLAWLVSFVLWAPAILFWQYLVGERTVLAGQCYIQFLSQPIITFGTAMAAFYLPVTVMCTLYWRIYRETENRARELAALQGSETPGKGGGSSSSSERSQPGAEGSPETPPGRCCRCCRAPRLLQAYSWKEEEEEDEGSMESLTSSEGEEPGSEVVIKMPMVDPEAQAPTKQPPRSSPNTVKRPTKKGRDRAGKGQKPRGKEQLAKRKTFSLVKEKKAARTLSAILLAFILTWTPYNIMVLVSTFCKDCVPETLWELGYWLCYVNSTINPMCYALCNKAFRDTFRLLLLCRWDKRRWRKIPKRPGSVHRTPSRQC

M2 Muscarinic subtype = molecular target: T2, M2 Muscarinic subtype (Homo sapiens, UniProt P08172); assay: M2 Muscarinic subtype assay per U.S. Pat. No. 5,093,333; assay type: binding; settings: Table 1
T2 sequence (P08172 1-466): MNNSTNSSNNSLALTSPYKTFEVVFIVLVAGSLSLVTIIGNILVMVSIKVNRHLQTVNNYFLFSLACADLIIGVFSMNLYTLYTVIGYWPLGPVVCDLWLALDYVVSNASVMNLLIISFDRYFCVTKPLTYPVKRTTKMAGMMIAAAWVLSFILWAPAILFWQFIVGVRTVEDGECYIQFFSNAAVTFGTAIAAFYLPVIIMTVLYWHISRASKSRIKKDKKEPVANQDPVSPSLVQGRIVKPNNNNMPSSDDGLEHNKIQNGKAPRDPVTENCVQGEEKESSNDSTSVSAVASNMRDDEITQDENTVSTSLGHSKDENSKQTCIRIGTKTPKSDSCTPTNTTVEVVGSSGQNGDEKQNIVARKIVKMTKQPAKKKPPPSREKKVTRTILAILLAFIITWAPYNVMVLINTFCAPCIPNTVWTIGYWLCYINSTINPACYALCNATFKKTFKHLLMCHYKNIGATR

D2 receptors = molecular target: T3, D2 receptors (Chlorocebus aethiops, UniProt P52702); assay: D2 receptor binding assay (3H-YM 09151-2); design: species or system African Green monkey; settings: Table 1; COS cell pellets with recombinant receptor, 0.5 nM 3H-YM 09151-2
T3 construct: expressed in transfected cells; host or cells: COS cells
Protocol: as §1, §2

D4 receptors, sequence (A0A0D9REG7 entry or part of it): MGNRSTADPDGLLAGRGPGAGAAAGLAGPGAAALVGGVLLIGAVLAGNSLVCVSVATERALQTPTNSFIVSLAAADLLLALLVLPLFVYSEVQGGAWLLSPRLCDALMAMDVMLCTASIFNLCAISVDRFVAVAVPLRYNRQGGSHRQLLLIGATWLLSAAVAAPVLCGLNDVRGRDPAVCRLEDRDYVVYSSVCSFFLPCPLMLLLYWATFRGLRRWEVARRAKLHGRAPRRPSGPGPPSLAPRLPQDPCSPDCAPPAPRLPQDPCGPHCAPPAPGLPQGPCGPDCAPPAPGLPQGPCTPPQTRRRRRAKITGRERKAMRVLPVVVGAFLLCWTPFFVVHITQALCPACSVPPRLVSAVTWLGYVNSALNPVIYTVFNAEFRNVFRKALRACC
T3 sequence (P52702 whole entry): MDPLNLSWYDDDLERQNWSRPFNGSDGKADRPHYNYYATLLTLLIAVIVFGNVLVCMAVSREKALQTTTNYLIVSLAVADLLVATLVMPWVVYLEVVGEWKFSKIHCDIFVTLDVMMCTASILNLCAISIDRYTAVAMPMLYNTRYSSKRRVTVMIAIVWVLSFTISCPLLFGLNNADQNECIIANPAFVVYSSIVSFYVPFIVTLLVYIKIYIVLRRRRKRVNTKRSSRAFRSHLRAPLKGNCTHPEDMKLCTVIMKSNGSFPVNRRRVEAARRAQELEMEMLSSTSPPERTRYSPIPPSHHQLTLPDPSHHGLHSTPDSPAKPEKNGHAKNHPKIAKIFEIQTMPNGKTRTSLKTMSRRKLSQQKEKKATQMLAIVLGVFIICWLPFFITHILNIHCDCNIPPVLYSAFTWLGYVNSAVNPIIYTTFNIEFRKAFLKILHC

Compound | M1 (M1 Muscarinic subtype) [nM] | M2 (M2 Muscarinic subtype) [nM] | melting point [°C] | Ki (D4 receptors) [nM] | Ki (D2 receptors) [nM]
(4methyl(2-quinolyl))(2-(4-pyrimidin-2-ylpiperazinyl)ethyl)amine hydrobromide [Compound 11] | 178 | 246 | – | 10 | –
(3-(4-(2,3-dimethylphenyl)piperazinyl)propyl)-2-quinolylamine [Compound 21] | – | – | – | 22 | > 100
(4-methyl(2-quinolyl))(3-(4-(pyrimidin-2-yl)piperazinyl)propyl)amine [Compound 22] | – | – | – | 10 | 3300
c1ccc(N2CCN(CCNC3=Nc4ccccc4CC3)CC2)nc1 [Compound 2, 2-3,4-dihydroquinolyl(2-(4-(2-pyridyl)piperazinyl)ethyl)amine] | – | – | – | – | > 100
Fc1cnc(N2CCN(CCNC3=Nc4ccccc4CC3)CC2)nc1 [Compound 3, 2-3,4-dihydroquinolyl(2-(4-(5-fluoropyrimidin-2-yl)piperazinyl)ethyl)amine] | 128 | 144 | – | – | –
c1cnc(N2CCN(CCNc3ccc4ccccc4n3)CC2)nc1 [Compound 1, (2-(4-pyrimidin-2-ylpiperazinyl)ethyl)-2-quinolylamine] | 264 | 299 | – | – | 2720

Now from value to compound, other results behind:

M1 (M1 Muscarinic subtype) [nM] | M2 (M2 Muscarinic subtype) [nM] | melting point [°C] | Compound | Ki (D4 receptors) [nM] | Ki (D2 receptors) [nM]
– | – | 247 | OC1(c2ccccc2)CCN(CCCNC2=Nc3ccccc3CC2)CC1 (as salt: hydrobromid) | – | –
– | – | > 260 | OC1(c2ccc(Cl)cc2)CCN(CCCNC2=Nc3ccccc3CC2)CC1 (as salt: hydrobromid) | – | –
